Test results as given in PubChem BioAssay (NCI).
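1) Cells in 96-well plates. 2) Compound, 48 h, 5 concentrations. 3) Linear interpolation between surrounding doses. 4) Unreached endpoint = highest concentration. At the GI50, growth is halved. TGI marks complete inhibition of growth.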

Key:
Assay in all cases: NCI-60 cell line screen, 48 h
[1] = test system: DU-145 prostate
[2] = test system: COLO 205 colon
[3] = test system: 786-0 renal
[4] = test system: MCF7 breast
[5] = test system: SR leukemia
[6] = test system: UACC-257 melanoma
[7] = test system: M14 melanoma
[8] = test system: A498 renal
[9] = test system: UACC-62 melanoma
[10] = test system: SF-268 CNS
[11] = test system: U251 CNS
[12] = test system: SW-620 colon
[13] = test system: BT-549 breast
[14] = test system: T-47D breast
[15] = test system: SN12C renal
[16] = test system: MDA-MB-231 breast
[17] = test system: SF-539 CNS
[18] = test system: MDA-MB-435
[19] = test system: HOP-92 NSCLC
[20] = test system: UO-31 renal
[21] = test system: RXF 393 renal
[22] = test system: RPMI-8226 leukemia
[23] = test system: OVCAR-3 ovarian
[24] = test system: K-562 leukemia
[25] = test system: MOLT-4 leukemia
[26] = test system: MALME-3M melanoma
[27] = test system: HS 578T breast
[28] = test system: NCI-H522 lung
[29] = test system: HT29 colon
[30] = test system: SK-MEL-28 melanoma
[31] = test system: HL-60(TB) leukemia
[32] = test system: HCT-15 colon
[33] = test system: IGROV1 ovarian
[34] = test system: SNB-75 CNS
[35] = test system: OVCAR-4 ovarian
[36] = test system: PC-3 prostate
[37] = test system: SNB-19 CNS
[38] = test system: SF-295 CNS
[39] = test system: NCI-H226 lung
[40] = test system: TK-10 renal
[41] = test system: A549 NSCLC
[42] = test system: CAKI-1 renal
[43] = test system: HCC-2998 colon
[44] = test system: OVCAR-8 ovarian
[45] = test system: SK-MEL-2 melanoma
[46] = test system: NCI/ADR-RES ovarian
[47] = test system: EKVX NSCLC
[48] = test system: KM12 colon
[49] = test system: HCT-116 colon
[50] = test system: SK-OV-3 ovarian
[51] = test system: CCRF-CEM leukemia
[52] = test system: SK-MEL-5 melanoma
[53] = test system: ACHN renal
[54] = test system: HOP-62 NSCLC
[55] = test system: NCI-H460 lung
[56] = test system: OVCAR-5 ovarian
[57] = test system: LOX IMVI melanoma
[58] = test system: NCI-H23 lung

COc1cccc(N2CCN(c3ncnc4c3[nH]c3ccc(F)cc34)C[C@@H]2C)c1
GI50 [1]: 1380 nM
TGI [1]: 2670 nM
GI50 [2]: 1430 nM
TGI [2]: 2800 nM
GI50 [3]: 2050 nM
TGI [3]: 5240 nM
GI50 [4]: 1530 nM
TGI [4]: 3450 nM
GI50 [5]: 2710 nM
TGI [5]: > 100000 nM
GI50 [6]: 1880 nM
TGI [6]: 3620 nM
GI50 [7]: 1360 nM
TGI [7]: 2730 nM
GI50 [8]: 2850 nM
TGI [8]: 8030 nM
GI50 [9]: 716 nM
TGI [9]: 2120 nM
GI50 [10]: 1980 nM
TGI [10]: 6720 nM
GI50 [11]: 2280 nM
TGI [11]: 6080 nM
GI50 [12]: 2270 nM
TGI [12]: 6070 nM
GI50 [13]: 343 nM
TGI [13]: 1430 nM
GI50 [14]: 310 nM
TGI [14]: 1640 nM
GI50 [15]: 1170 nM
TGI [15]: 2460 nM
GI50 [16]: 2270 nM
TGI [16]: 6470 nM
GI50 [17]: 2270 nM
TGI [17]: 5650 nM
GI50 [18]: 1590 nM
TGI [18]: 3180 nM
GI50 [19]: 2280 nM
TGI [19]: 6920 nM
GI50 [20]: 467 nM
TGI [20]: 1680 nM
GI50 [21]: 2240 nM
TGI [21]: 5450 nM
GI50 [22]: 492 nM
TGI [22]: 3600 nM
GI50 [23]: 1500 nM
TGI [23]: 5590 nM
GI50 [24]: 1120 nM
TGI [24]: > 100000 nM
GI50 [25]: 999 nM
TGI [25]: 4650 nM
GI50 [26]: 1360 nM
TGI [26]: 3430 nM
GI50 [27]: 1770 nM
TGI [27]: 8520 nM
GI50 [28]: 592 nM
TGI [28]: 2020 nM
GI50 [29]: 2790 nM
TGI [29]: 9850 nM
GI50 [30]: 1470 nM
TGI [30]: 2910 nM
GI50 [31]: 1250 nM
TGI [31]: 5190 nM
GI50 [32]: 1750 nM
TGI [32]: 4420 nM
GI50 [33]: 1710 nM
TGI [33]: 4670 nM
GI50 [34]: 1690 nM
TGI [34]: 3060 nM
GI50 [35]: 852 nM
TGI [35]: 3860 nM
GI50 [36]: 912 nM
TGI [36]: 3540 nM
GI50 [37]: 2550 nM
TGI [37]: 6900 nM
GI50 [38]: 1610 nM
TGI [38]: 3350 nM
GI50 [39]: 1320 nM
TGI [39]: 3030 nM
GI50 [40]: 2140 nM
TGI [40]: 4420 nM
GI50 [41]: 1900 nM
TGI [41]: 5960 nM
GI50 [42]: 1670 nM
TGI [42]: 5580 nM
GI50 [43]: 2610 nM
TGI [43]: 8320 nM
GI50 [44]: 762 nM
TGI [44]: 2040 nM
GI50 [45]: 1440 nM
TGI [45]: 2820 nM
GI50 [46]: 1210 nM
TGI [46]: 4350 nM
GI50 [47]: 1880 nM
TGI [47]: 6160 nM
GI50 [48]: 1220 nM
TGI [48]: 2730 nM
GI50 [49]: 1220 nM
TGI [49]: 3130 nM
GI50 [50]: 2430 nM
TGI [50]: 7470 nM
GI50 [51]: 603 nM
TGI [51]: > 100000 nM
GI50 [52]: 1310 nM
TGI [52]: 2580 nM
GI50 [53]: 1490 nM
TGI [53]: 3720 nM
GI50 [54]: 1230 nM
TGI [54]: 2760 nM
GI50 [55]: 2530 nM
TGI [55]: 7340 nM
GI50 [56]: 2280 nM
TGI [56]: 6160 nM

CC1=C(CN(O)C(N)=O)C2=C(C)C3(CC3)[C@@](C)(O)C(=O)C2=C1
GI50 [1]: 43.9 nM
TGI [1]: 1110 nM
GI50 [2]: 185 nM
TGI [2]: 517 nM
GI50 [3]: 343 nM
GI50 [4]: 921 nM
TGI [4]: 10100 nM
GI50 [5]: 7600 nM
TGI [5]: > 80900 nM
GI50 [6]: 280 nM
TGI [6]: 765 nM
GI50 [7]: 269 nM
TGI [7]: 699 nM
GI50 [8]: 175 nM
TGI [8]: 359 nM
GI50 [9]: 224 nM
TGI [9]: 562 nM
GI50 [10]: 236 nM
TGI [10]: 1560 nM
GI50 [11]: 337 nM
GI50 [12]: 10800 nM
TGI [12]: > 100000 nM
GI50 [13]: 367 nM
TGI [13]: 1590 nM
GI50 [14]: 214 nM
TGI [14]: 1720 nM
GI50 [15]: 373 nM
TGI [15]: 2670 nM
GI50 [16]: 324 nM
TGI [16]: 1780 nM
GI50 [17]: 216 nM
TGI [17]: 556 nM
GI50 [18]: 662 nM
TGI [18]: 2370 nM
GI50 [19]: 208 nM
TGI [19]: 618 nM
GI50 [21]: 141 nM
TGI [21]: 290 nM
GI50 [22]: 7190 nM
TGI [22]: > 100000 nM
GI50 [23]: 260 nM
TGI [23]: 769 nM
GI50 [24]: 16300 nM
TGI [24]: > 100000 nM
GI50 [25]: 21300 nM
TGI [25]: > 100000 nM
GI50 [26]: 205 nM
TGI [26]: 424 nM
GI50 [27]: 503 nM
TGI [27]: 3000 nM
GI50 [57]: 402 nM
TGI [57]: 2040 nM
GI50 [28]: 1230 nM
TGI [28]: 4650 nM
GI50 [29]: 316 nM
TGI [29]: > 34500 nM
GI50 [30]: 229 nM
TGI [30]: 505 nM
GI50 [31]: 279 nM
TGI [31]: 3550 nM
GI50 [32]: 267 nM
TGI [32]: 883 nM
GI50 [33]: 208 nM
TGI [33]: 940 nM
GI50 [34]: 215 nM
TGI [34]: 464 nM
GI50 [58]: 109 nM
TGI [58]: 544 nM
GI50 [35]: 285 nM
TGI [35]: 1550 nM
GI50 [36]: 398 nM
TGI [36]: 5240 nM
GI50 [37]: 469 nM
TGI [37]: 6180 nM
GI50 [38]: 252 nM
TGI [38]: 1160 nM
GI50 [39]: 235 nM
TGI [39]: 644 nM
GI50 [40]: 308 nM
TGI [40]: 909 nM
GI50 [41]: 118 nM
TGI [41]: 1220 nM
GI50 [42]: 253 nM
TGI [42]: 1350 nM
GI50 [43]: 174 nM
TGI [43]: 414 nM
GI50 [44]: 337 nM
TGI [44]: 6680 nM
GI50 [45]: 356 nM
TGI [45]: 1210 nM
GI50 [46]: 381 nM
TGI [46]: 3110 nM
GI50 [47]: 346 nM
TGI [47]: 1530 nM
GI50 [48]: 530 nM
TGI [48]: 5410 nM
GI50 [49]: 267 nM
GI50 [50]: 305 nM
TGI [50]: 1090 nM
GI50 [51]: 29600 nM
TGI [51]: > 100000 nM
GI50 [52]: 195 nM
TGI [52]: 409 nM
GI50 [53]: 236 nM
TGI [53]: 572 nM
GI50 [54]: 178 nM
TGI [54]: 996 nM
GI50 [55]: 45.2 nM
TGI [55]: 909 nM
GI50 [56]: 367 nM
TGI [56]: 2270 nM
